Data on one substance can be found in US20250052016A1, “ARTIFICIAL TURF COMPRISING ANTIMICROBIAL POLYURETHANE BACKING” (Synthetic Turf Resources (STR), priority 2022, published 2025).

The test system of experiment [1] is E. coli. Conditions: added in the polyurethane reaction mixture in amounts of 0.1 wt % to 0.5 wt %.
Experiment [2] relates to S. aureus. As to conditions: added in the polyurethane reaction mixture in amounts of 0.1 wt % to 0.5 wt %.

Turning to zinc pyrithione, the “effectiveness against E. coli” value in experiment [1] was “particularly effective”. In experiment [2], the “effectiveness against S. aureus” value was “particularly effective”.
